Test system: 299254-011-R-J1-PDC complex spheroid viability
Assay: Anticancer human tumor 299254-011-R-J1-PDC patient-derived melanoma cell line growth inhibition [POLQ]
Conditions: for IC50: curve of first compound; for viability, T/C: stronger effect = lower value
Procedure, shortened: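 PDC + HUVEC + MSC complex spheroids; POLQ inhibitors ± partner drugs; top conc. at/near clinical Cmax, else 10 microM (SN-38 1 microM), half-log dilutions; 37 degrees C, 5% CO2.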

[1] = second compound 0.0316 µM, first compound 0.0316 µM
[2] = second compound 0.0316 µM, first compound 0.1 µM
[3] = second compound 0.0316 µM, first compound 0.316 µM
[4] = second compound 0.0316 µM, first compound 1 µM
[5] = second compound 0.0316 µM, first compound 3.16 µM
[6] = second compound 0.0316 µM, first compound 10 µM
[7] = second compound 0.1 µM, first compound 0.0316 µM
[8] = second compound 0.1 µM, first compound 0.1 µM
[9] = second compound 0.1 µM, first compound 0.316 µM
[10] = second compound 0.1 µM, first compound 1 µM
[11] = second compound 0.1 µM, first compound 3.16 µM
[12] = second compound 0.1 µM, first compound 10 µM
[13] = second compound 0.316 µM, first compound 0.0316 µM
[14] = second compound 0.316 µM, first compound 0.1 µM
[15] = second compound 0.316 µM, first compound 0.316 µM
[16] = second compound 0.316 µM, first compound 1 µM
[17] = second compound 0.316 µM, first compound 3.16 µM
[18] = second compound 0.316 µM, first compound 10 µM
[19] = second compound 1 µM, first compound 0.0316 µM
[20] = second compound 1 µM, first compound 0.1 µM
[21] = second compound 1 µM, first compound 0.316 µM
[22] = second compound 1 µM, first compound 1 µM
[23] = second compound 1 µM, first compound 3.16 µM
[24] = second compound 1 µM, first compound 10 µM
[25] = second compound 3.16 µM, first compound 0.0316 µM
[26] = second compound 3.16 µM, first compound 0.1 µM
[27] = second compound 3.16 µM, first compound 0.316 µM
[28] = second compound 3.16 µM, first compound 1 µM
[29] = second compound 3.16 µM, first compound 3.16 µM
[30] = second compound 3.16 µM, first compound 10 µM
[31] = second compound 10 µM, first compound 0.0316 µM
[32] = second compound 10 µM, first compound 0.1 µM
[33] = second compound 10 µM, first compound 0.316 µM
[34] = second compound 10 µM, first compound 1 µM
[35] = second compound 10 µM, first compound 3.16 µM
[36] = second compound 10 µM, first compound 10 µM
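Note: spheroids exposed to drugs for one week before measurement.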
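Throughout, for viability, T/C: percent viability relative to DMSO vehicle control taken as 100%.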

With `O=C(Nc1ccc(O)c(NS(=O)(=O)c2ccc(F)cc2)c1)c1ccc(-c2ccccc2)cc1` + Cc1cccc(N(C)C(=O)C2C(O)CCN2c2nc(C)cc(C(F)(F)F)c2C#N)c1 the IC50 (second compound 0.0316 µM) was greater than 10000 nM, the IC50 (second compound 0.1 µM) was 9450 nM and the IC50 (second compound 0.316 µM) was greater than 10000 nM. It also gave an IC50 (second compound 1 µM) greater than 10000 nM, an IC50 (second compound 3.16 µM) of 9750 nM and an IC50 (second compound 10 µM) of 8660 nM. For the same compound, the viability, T/C [1] was 102%, the viability, T/C [2] was 99.2% and the viability, T/C [3] was 92.7%. It also gave a viability, T/C [4] of 104%, a viability, T/C [5] of 99.3% and a viability, T/C [6] of 54.8%. For the same compound, the viability, T/C [7] was 105%, the viability, T/C [8] was 107% and the viability, T/C [9] was 98%. It also gave a viability, T/C [10] of 107%, a viability, T/C [11] of 96.3% and a viability, T/C [12] of 47.3%. For the same compound, the viability, T/C [13] was 102%, the viability, T/C [14] was 115% and the viability, T/C [15] was 98.2%. For the same compound, the viability, T/C [16] was 123%, the viability, T/C [17] was 93.7% and the viability, T/C [18] was 56.2%. For the same compound, the viability, T/C [19] was 106%, the viability, T/C [20] was 111% and the viability, T/C [21] was 109%. The viability, T/C [22] was 104%, the viability, T/C [23] was 90.7% and the viability, T/C [24] was 53%. It also gave a viability, T/C [25] of 108%, a viability, T/C [26] of 103% and a viability, T/C [27] of 101%. The viability, T/C [28] was 94.8%, the viability, T/C [29] was 100% and the viability, T/C [30] was 48.9%. For the same compound, the viability, T/C [31] was 98.7%, the viability, T/C [32] was 98% and the viability, T/C [33] was 93.6%. For the same compound, the viability, T/C [34] was 110%, the viability, T/C [35] was 83.4% and the viability, T/C [36] was 45.2%.

For `CC(=O)O[C@H]1C(=O)[C@@]2(C)[C@H]([C@H](OC(=O)c3ccccc3)[C@]3(O)C[C@H](OC(=O)[C@H](O)[C@@H](NC(=O)c4ccccc4)c4ccccc4)C(C)=C1C3(C)C)[C@]1(OC(C)=O)CO[C@@H]1C[C@@H]2O` + Nc1ccc(C#CCN(C(=O)Cc2ncc(C(F)(F)F)cc2C(F)(F)F)c2ccc(F)cc2)nn1, the IC50 (second compound 0.0316 µM) was 153 nM, the IC50 (second compound 0.1 µM) was 85.6 nM and the IC50 (second compound 0.316 µM) was 109 nM. It also gave an IC50 (second compound 1 µM) of 50.2 nM, an IC50 (second compound 3.16 µM) of 24.9 nM and an IC50 (second compound 10 µM) of less than 9.49 nM. It also gave a viability, T/C (second compound 0.0316 µM, first compound 0.00949 µM) of 90.2%, a viability, T/C (second compound 0.0316 µM, first compound 0.03 µM) of 76.6% and a viability, T/C (second compound 0.0316 µM, first compound 0.0949 µM) of 59.5%. It also gave a viability, T/C (second compound 0.0316 µM, first compound 0.3 µM) of 37.8%, a viability, T/C (second compound 0.0316 µM, first compound 0.949 µM) of 28.6% and a viability, T/C (second compound 0.0316 µM, first compound 3 µM) of 24.8%. The viability, T/C (second compound 0.1 µM, first compound 0.00949 µM) was 103%, the viability, T/C (second compound 0.1 µM, first compound 0.03 µM) was 78.6% and the viability, T/C (second compound 0.1 µM, first compound 0.0949 µM) was 43.7%. For the same compound, the viability, T/C (second compound 0.1 µM, first compound 0.3 µM) was 39.5%, the viability, T/C (second compound 0.1 µM, first compound 0.949 µM) was 28.4% and the viability, T/C (second compound 0.1 µM, first compound 3 µM) was 26.9%. For the same compound, the viability, T/C (second compound 0.316 µM, first compound 0.00949 µM) was 84.2%, the viability, T/C (second compound 0.316 µM, first compound 0.03 µM) was 85.3% and the viability, T/C (second compound 0.316 µM, first compound 0.0949 µM) was 52%. It also gave a viability, T/C (second compound 0.316 µM, first compound 0.3 µM) of 32.5%, a viability, T/C (second compound 0.316 µM, first compound 0.949 µM) of 27.8% and a viability, T/C (second compound 0.316 µM, first compound 3 µM) of 24.5%. It also gave a viability, T/C (second compound 1 µM, first compound 0.00949 µM) of 80.8%, a viability, T/C (second compound 1 µM, first compound 0.03 µM) of 58.2% and a viability, T/C (second compound 1 µM, first compound 0.0949 µM) of 39.2%. The viability, T/C (second compound 1 µM, first compound 0.3 µM) was 32.3%, the viability, T/C (second compound 1 µM, first compound 0.949 µM) was 21.7% and the viability, T/C (second compound 1 µM, first compound 3 µM) was 25.4%. It also gave a viability, T/C (second compound 3.16 µM, first compound 0.00949 µM) of 74.7%, a viability, T/C (second compound 3.16 µM, first compound 0.03 µM) of 43.5% and a viability, T/C (second compound 3.16 µM, first compound 0.0949 µM) of 35.5%. For the same compound, the viability, T/C (second compound 3.16 µM, first compound 0.3 µM) was 25.9%, the viability, T/C (second compound 3.16 µM, first compound 0.949 µM) was 22.7% and the viability, T/C (second compound 3.16 µM, first compound 3 µM) was 25.4%. It also gave a viability, T/C (second compound 10 µM, first compound 0.00949 µM) of 47.5%, a viability, T/C (second compound 10 µM, first compound 0.03 µM) of 36% and a viability, T/C (second compound 10 µM, first compound 0.0949 µM) of 26.9%. The viability, T/C (second compound 10 µM, first compound 0.3 µM) was 20.9%, the viability, T/C (second compound 10 µM, first compound 0.949 µM) was 24.8% and the viability, T/C (second compound 10 µM, first compound 3 µM) was 23.2%.

For `COc1cccc2c1C(=O)c1c(O)c3c(c(O)c1C2=O)CC(O)(C(=O)CO)CC3OC1CC(N)C(O)C(C)O1` (stereo unspecified) + Nc1ccc(C#CCN(C(=O)Cc2ncc(C(F)(F)F)cc2C(F)(F)F)c2ccc(F)cc2)nn1, the IC50 (second compound 0.0316 µM) was 1070 nM, the IC50 (second compound 0.1 µM) was 927 nM and the IC50 (second compound 0.316 µM) was 1020 nM. It also gave an IC50 (second compound 1 µM) of 832 nM, an IC50 (second compound 3.16 µM) of 750 nM and an IC50 (second compound 10 µM) of 535 nM. The viability, T/C [1] was 120%, the viability, T/C [2] was 85.1% and the viability, T/C [3] was 83.1%. For the same compound, the viability, T/C [4] was 56.5%, the viability, T/C [5] was 17.8% and the viability, T/C [6] was 1.11%. It also gave a viability, T/C [7] of 89.8%, a viability, T/C [8] of 94.6% and a viability, T/C [9] of 63.5%. For the same compound, the viability, T/C [10] was 54.5%, the viability, T/C [11] was 17.9% and the viability, T/C [12] was 1.22%. For the same compound, the viability, T/C [13] was 93.1%, the viability, T/C [14] was 75.2% and the viability, T/C [15] was 65.9%. For the same compound, the viability, T/C [16] was 61.2%, the viability, T/C [17] was 16% and the viability, T/C [18] was 2.99%. For the same compound, the viability, T/C [19] was 86.6%, the viability, T/C [20] was 72.2% and the viability, T/C [21] was 87.2%. It also gave a viability, T/C [22] of 43.9%, a viability, T/C [23] of 9.65% and a viability, T/C [24] of 0.5%. It also gave a viability, T/C [25] of 94.9%, a viability, T/C [26] of 85.7% and a viability, T/C [27] of 77.1%. It also gave a viability, T/C [28] of 42.7%, a viability, T/C [29] of 0.52% and a viability, T/C [30] of 2.06%. It also gave a viability, T/C [31] of 77.7%, a viability, T/C [32] of 85.9% and a viability, T/C [33] of 65.3%. For the same compound, the viability, T/C [34] was 30.5%, the viability, T/C [35] was 0.39% and the viability, T/C [36] was 2.85%.

Reference: PubChem BioAssay AID1963849 (Molecular Pharmacology Branch, DTP, NCI, 2024)
